Measurements from ChEMBL document CHEMBL1136557, “2-Phenylspiroindenes: a novel class of selective estrogen receptor modulators (SERMs)” (Bioorg Med Chem Lett, 2003).

Legend:
Estrogen receptor beta [1] = target: Estrogen receptor beta (Homo sapiens, UniProt Q92731)
Description: Binding affinity for Human Estrogen receptor-beta

Estrogen receptor beta [2] = target: Estrogen receptor beta (Rattus norvegicus, UniProt Q62986); test: Binding affinity foor Rat Estrogen receptor-beta
Estrogen receptor [3] = target: T1, Estrogen receptor (Homo sapiens, UniProt P03372)
T1 sequence (P03372 whole entry): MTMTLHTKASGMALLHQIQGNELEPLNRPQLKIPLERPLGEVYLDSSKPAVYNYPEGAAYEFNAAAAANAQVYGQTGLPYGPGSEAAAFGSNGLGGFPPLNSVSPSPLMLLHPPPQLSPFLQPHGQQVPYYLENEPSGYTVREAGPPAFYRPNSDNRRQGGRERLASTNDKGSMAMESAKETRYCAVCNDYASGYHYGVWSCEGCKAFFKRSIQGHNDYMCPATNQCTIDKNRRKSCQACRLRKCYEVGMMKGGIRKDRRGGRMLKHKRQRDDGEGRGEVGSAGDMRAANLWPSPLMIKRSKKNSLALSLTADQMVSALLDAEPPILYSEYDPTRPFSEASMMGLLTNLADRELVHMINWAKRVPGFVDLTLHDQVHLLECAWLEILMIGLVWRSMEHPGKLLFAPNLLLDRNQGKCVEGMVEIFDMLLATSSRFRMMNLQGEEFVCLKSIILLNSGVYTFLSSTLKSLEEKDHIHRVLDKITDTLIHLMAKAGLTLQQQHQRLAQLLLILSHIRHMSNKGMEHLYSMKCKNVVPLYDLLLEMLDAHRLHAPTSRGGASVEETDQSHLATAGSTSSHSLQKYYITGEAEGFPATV
Description: Binding affinity for Human Estrogen receptor-alpha

Estrogen receptor [4] = target: T2, Estrogen receptor (Rattus norvegicus, UniProt P06211); test: Binding affinity for Rat Estrogen receptor-alpha
T2 sequence (P06211 whole entry): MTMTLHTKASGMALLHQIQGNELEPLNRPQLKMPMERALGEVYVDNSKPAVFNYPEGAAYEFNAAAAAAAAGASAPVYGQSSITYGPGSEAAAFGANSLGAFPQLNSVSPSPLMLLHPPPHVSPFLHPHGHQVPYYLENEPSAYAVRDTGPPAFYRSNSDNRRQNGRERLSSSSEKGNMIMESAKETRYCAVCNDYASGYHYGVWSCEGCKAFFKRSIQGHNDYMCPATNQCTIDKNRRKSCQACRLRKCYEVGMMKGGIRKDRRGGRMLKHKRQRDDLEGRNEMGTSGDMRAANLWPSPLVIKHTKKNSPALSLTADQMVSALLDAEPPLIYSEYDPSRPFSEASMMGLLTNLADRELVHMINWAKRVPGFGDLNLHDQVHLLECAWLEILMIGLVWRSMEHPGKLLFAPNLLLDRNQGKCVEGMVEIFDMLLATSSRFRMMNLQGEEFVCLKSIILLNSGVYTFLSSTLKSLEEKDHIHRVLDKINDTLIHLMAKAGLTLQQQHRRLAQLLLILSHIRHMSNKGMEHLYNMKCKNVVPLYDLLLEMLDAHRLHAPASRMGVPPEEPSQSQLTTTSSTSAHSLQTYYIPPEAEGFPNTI

Sequence of Estrogen receptor beta (Rattus norvegicus, UniProt Q62986) (Q62986 whole entry): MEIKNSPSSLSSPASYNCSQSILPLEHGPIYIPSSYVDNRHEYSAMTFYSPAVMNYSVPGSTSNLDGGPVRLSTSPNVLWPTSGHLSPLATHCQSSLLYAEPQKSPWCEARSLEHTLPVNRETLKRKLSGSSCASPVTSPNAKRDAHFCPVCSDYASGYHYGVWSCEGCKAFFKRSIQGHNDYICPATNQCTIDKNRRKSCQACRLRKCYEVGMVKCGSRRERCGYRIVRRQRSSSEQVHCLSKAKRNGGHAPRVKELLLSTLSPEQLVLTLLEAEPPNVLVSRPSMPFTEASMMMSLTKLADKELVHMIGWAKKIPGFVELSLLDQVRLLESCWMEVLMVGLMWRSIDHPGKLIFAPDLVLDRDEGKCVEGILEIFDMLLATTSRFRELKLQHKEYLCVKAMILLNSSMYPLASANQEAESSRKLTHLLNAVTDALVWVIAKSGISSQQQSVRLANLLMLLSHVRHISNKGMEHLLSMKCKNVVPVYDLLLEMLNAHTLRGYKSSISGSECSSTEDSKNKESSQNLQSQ
Sequence of Estrogen receptor beta (Homo sapiens, UniProt Q92731) (Q92731 whole entry): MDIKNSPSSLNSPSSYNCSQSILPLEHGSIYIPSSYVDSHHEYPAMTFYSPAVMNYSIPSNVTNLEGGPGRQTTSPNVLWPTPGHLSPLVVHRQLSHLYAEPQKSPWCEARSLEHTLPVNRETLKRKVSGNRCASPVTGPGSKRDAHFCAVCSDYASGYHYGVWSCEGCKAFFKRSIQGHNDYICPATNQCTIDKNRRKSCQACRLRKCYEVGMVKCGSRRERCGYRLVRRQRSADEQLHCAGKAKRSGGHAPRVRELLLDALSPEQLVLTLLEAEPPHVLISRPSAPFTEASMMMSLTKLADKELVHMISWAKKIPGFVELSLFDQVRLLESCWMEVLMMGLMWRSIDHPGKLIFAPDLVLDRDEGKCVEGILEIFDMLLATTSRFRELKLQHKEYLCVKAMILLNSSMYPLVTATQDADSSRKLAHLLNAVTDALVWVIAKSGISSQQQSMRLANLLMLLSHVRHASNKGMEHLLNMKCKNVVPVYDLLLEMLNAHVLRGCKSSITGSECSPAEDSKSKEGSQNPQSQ

IC50 (Estrogen receptor beta [1]) [nM] | IC50 (Estrogen receptor beta [2]) [nM] | IC50 (Estrogen receptor [3]) [nM] | IC50 (Estrogen receptor [4]) [nM] | SMILES
12 | 15 | 31 | 16 | Oc1cccc(C2=Cc3ccc(O)cc3C23Cc2ccccc2C3)c1
21 |  | 24 |  | Oc1ccc2c(c1)C=C(c1ccccc1)C21Cc2ccccc2C1
23 | 29 | 28 | 34 | Oc1cccc(C2=Cc3cc(O)ccc3C23Cc2ccccc2C3)c1
2.1 | 1.1 | 4.3 |  | Oc1ccc(C2=Cc3cc(O)ccc3C23Cc2ccccc2C3)cc1

Continued, molecule first:

SMILES | IC50 (Estrogen receptor beta [1]) [nM] | IC50 (Estrogen receptor beta [2]) [nM] | IC50 (Estrogen receptor [3]) [nM] | IC50 (Estrogen receptor [4]) [nM]
CC1=C(c2ccc(O)cc2)C2(Cc3ccccc3C2)c2ccc(O)cc21 | 5.9 | 1.2 | 19 | 2.2
Oc1ccc(C2=Cc3cc(O)ccc3C23Cc2ccc(OCCN4CCCCC4)cc2C3)cc1 (centres undefined) | 1.9 | 2.7 | 1 | 1.7
C1=C(c2ccccc2)C2(Cc3ccccc3C2)c2ccccc21 | > 10000 | > 10000 | > 10000 | > 10000
Oc1ccc2c(c1)CC1(C2)C(c2ccccc2)=Cc2ccccc21 (centres undefined) | 429 | 1070 | 58 | 114
